Measurements published in US4393178A, “Fast crystallizing polyester compositions” (priority 1979, dated 1983).
Where a name gives a salt, the structure may show the parent alone. Read-outs that look alike come from different tables or passages of the source.

Legend:
[1] = Crystallisation peak temperature on heating (Tn), DSC; format: physicochemical; conditions: for Tn (16° C./min): 1% salt deposited from solution on PET; for Tn(composition)-Tn(polyester): PET I.V. 0.73 + 1% salt, 2-roll mill 300 °C 2 min, 10 °C/minute; for Tn: 1% salt on PET I.V. 0.73 from solution; for nucleating activity: in words
Protocol: In one such DSC technique the crystallisation peak temperature difference, Tn(composition)--Tn(polyester) is determined by measuring the crystallisation peak temperatures on heating for the composition in comparison with the polyester of the composition not containing the ionisable salt. The detailed procedure is as follows. Compositions were prepared from the polyester and the additive by mixing on a 2-roll mill at 300° C. for 2 minutes. The sample was taken from the mill and pressed into a film in a compression moulding machine. 10 mg samples of the composition were placed in a capsule, rapidly heated to 290° C. and maintained at that temperature for 1 minute. The capsule was then dropped into water to quench the polymer and prevent crystallisation. The sample was then placed in a Perkin Elmer DSC 2 machine and heated at a rate of 10° C./minute until reaching a temperature of 290° C. The crystallisation peak temperature observed on this heating cycle is recorded and compared with the value for the polyester not containing the additive.
Samples of polyethylene terephthalate (I.V. =0.73) containing 1% of the salts listed in Table 2 were prepared by compounding at 300° C. on a 2-roll mill for 2 minutes. The samples were evaluated to determine Tn(composition-Tn(polyester), the total number of end groups, the number of carboxylate groups and the number of hydroxyl and carboxyl groups.
The salts listed in Table 3 were deposited from solution on the surface of polyethylene terephthalate chip to give a concentration of 1% by weight of salt. The product was dried under vcuum at 96° C. for 3 hours. The compositions were pressed into film using a temperature of 280° C. for 1 minute. The DSC measurements were made after quenching from the melt to prevent crystallisation and using a heating rate of 16° C./minute.
1% by weight of the sodium salt of saccharin was deposited on the surface of granules of a polyethylene terephthalate homopolymer of I.V. =0.73 by evaporating an aqueous solution of the salt from the granules by drying at 96° C. under vacuum for 3 hours. The granules obtained were compression moulded into film by pressing at 280° C. for 60 second. The film was used for measurements of Tn at a heating rate of 16° C./minute.
The effect of the salts listed in Table 4 was determined by taking granules of a polymer of poly(ethylene terephthalate) homopolymer having an intrinsic viscosity of 0.73 and evaporating a solution of the salt in methanol or water from the surface of the granules by drying at 96° C. under vacuum for 3 hours. The proportions of polymer and solution used were such as to give a concentration of 1% of salt by weight of the final dry composition. The granules obtained were compression-moulded into film at 280° C. for various periods of time. The film was used for measurement of Tn as hereinbefore described.
Two samples of polyethylene terephthalate chip (I.V. =0.73) were coated from solution with 1% of the sodium salt of o-hydroxybenzoic acid and the disodium salt of the same acid respectively. After drying for 3 hours in a vacuum oven at 95° C. films were prepared by pressing the products for 1 minute at 280° C.

[2] = End group determination; format: physicochemical
Protocol: The numbers of hydroxyl and carboxyl groups were also determined according to the procedure given in this paper.
[…] The samples were evaluated to determine Tn(composition-Tn(polyester), the total number of end groups, the number of carboxylate groups and the number of hydroxyl and carboxyl groups.

[3] = Half-crystallisation time (t1/2), isothermal DSC; format: physicochemical
Protocol: A DSC 2 Perkin Elmer scanning calorimeter was used.
10 mg of the sample of polymer material are placed in a capsule and introduced into the apparatus, wherein the sample is quickly heated to a temperature of 290° C. at which it is maintained during 1 minute.
The molten polymer material is then very quickly cooled by means of liquid air (at a rate of 320° C. per minute) until the crystallisation temperature is reached.
The crystallisation isotherm is registered on a temperature-time graph and the peak appearing on the registered isotherm is taken as the half-crystallisation time (t1/2).

[4] = Degradation constant K (melt degradation performance); format: physicochemical; parameters: unit not given here; conditions: 1% salt in PET, 2-roll mill 270 °C 5 min; molten state 290 °C
Protocol: The melt degradation performance is a measure of the extent of degradation under molten conditions. A convenient method of quantifying the performance is by measuring the "K value". A method for determining this value in the molten state using an Instron Capillary rheometer is given in a paper by J. Devaux et al in Makromol.
This method is carried out on samples prepared by reacting the salt with the polyester on a 2 roll-mill at a temperature above the melting point of the polyester for 5 minutes and then pressing the product obtained into a 2 mm thick sheet using the same temperature for 3 minutes before cooling to room temperature. The method is described for polyethylene terephthalate but can be readily adapted for other polyesters.
For polyethylene terephthalate the K value in the presence of salt should be less than 60.

[5] = ΔT = Tc(cooling) - Tn(heating), DSC; format: physicochemical; conditions: 1% salt in PET, 2-roll mill 270 °C 5 min; 10 °C/minute
Protocol: An alternative method for assessing the effectiveness of nucleation of an additive is to compare the difference between the value of the crystallisation peak on cooling (Tc) with that on heating (Tn) for a composition containing an ionisable salt. The value obtained from this comparison, Tc(cooling) -Tn(heating) is termed ΔT. […] Samples of polyester together with 1% of the salt under test were mixed in a 2-roll mill at 270° C. for 5 minutes. The sample produced was pressed into 2 mm thick sheets at 270° C. for 3 minutes and then cooled to room temperature. 10 mg of the sample was placed in a capsule and rapidly heated to 290° C. After maintaining this temperature for 1 minute the capsule was quenched in water. The crystallisation peak temperatures on heating (Tn) and cooling (Tc) were determined using heating and cooling rates of 10° C./minute on a Perkin Elmer DSC 2 machine.

[6] = Solubility parameter δ of the acid; conditions: product for the acid
[7] = pressed 280 °C 1 minute, heating rate 16 °C/minute
[8] = 1% salt deposited from solution on PET chip, pressed 280 °C 1 minute
[9] = PET I.V. 0.73 + 1% salt, 2-roll mill 300 °C 2 min

For `O=C([O-])c1cccc2cccc(Br)c12.[Na+]` [Sodium 8-bromo-1-naphthoate], the “Tn (16° C./min)” value [1, 7] was 124 °C.

With `O=[PH](O)c1ccccc1` [Sodium phenyl phosphinate] the “Tn (16° C./min)” value [1, 7] was 117 °C, the “End Groups --COOH” value [2, 8] was 25 moles × 10^-6 g^-1 and the “End Groups --OH” value [2, 8] was 66 moles × 10^-6 g^-1.

For `O=C([O-])c1c(O)cccc1O.[Na+]` [sodium 2,6-dihydroxybenzoate], the “Tn(composition)-Tn(polyester)” value [1] was 24 °C, the “% of carboxylate end group” value [2, 9] was 3.9% and the “End Groups --COOH” value [2, 9] was 55 moles × 10^-6 g^-1. For the same compound, the “End Groups --OH” value [2, 9] was 69 moles × 10^-6 g^-1, the “End Groups Carboxylate” value [2, 9] was 5 moles × 10^-6 g^-1 and the “End Groups Total from solution I.V.” value [2, 9] was 127 moles × 10^-6 g^-1.

For `O=[PH](O)C1CCCCC1` [Calcium cyclohexyl phosphinate], the “Tn (16° C./min)” value [1, 7] was 129 °C.

With `O=C(O)c1ccccc1[N+](=O)[O-]` [ortho-nitrobenzoic acid] the “t1/2 (sec) 110° C.” value ([3]; 110 °C, 1% salt in PET, 2-roll mill 270 °C 5 min, after melting 1 minute at 290 °C) was 65 s, the “t1/2 (sec) 120° C.” value ([3]; 120 °C, 1% salt in PET, 2-roll mill 270 °C 5 min, after melting 1 minute at 290 °C) was 45 s and the K [4] was 20. The ΔT [5] was 106 °C and the “δ × pKH.sbsb.2O” value [6] was 30.

For `COC(=O)c1ccc(C(=O)[O-])cc1.[K+]` [Potassium monomethyl terephthalate, reference compound], the Tn ([1]; time in press 30 sec at 280 °C) was 138.5 °C, the Tn ([1]; time in press 60 sec at 280 °C) was 137.5 °C and the nucleating activity [1] was “only slight nucleating activity”.

With `O=C([O-])Cc1cccc2ccccc12.[Na+]` [sodium 1-naphthylacetate] the “t1/2 (sec) 110° C.” value [3] was 55 s, the “t1/2 (sec) 120° C.” value [3] was 30 s and the K [4] was 30.

With `O=C([O-])c1c(Cl)cccc1Cl.[Na+]` [sodium 2,6-dichlorobenzoate] the “Tn(composition)-Tn(polyester)” value [1] was 25 °C, the “% of carboxylate end group” value [2, 9] was 9.8% and the “End Groups --COOH” value [2, 9] was 51 moles × 10^-6 g^-1. The “End Groups --OH” value [2, 9] was 56 moles × 10^-6 g^-1, the “End Groups Carboxylate” value [2, 9] was 15 moles × 10^-6 g^-1 and the “End Groups Total from solution I.V.” value [2, 9] was 153 moles × 10^-6 g^-1.

With `O=C(O)c1ccc2ccccc2c1` [Sodium salt of 2-naphthoic acid] the “Tn(comp.)-Tn(PET) (16° C./min)” value ([1]; 1% salt deposited from solution on PET chip, pressed 280 °C 1 minute, heating rate 16 °C/minute) was 25 °C, the “Tn (16° C./min)” value [1, 7] was 120 °C and the “End Groups --COOH” value [2, 8] was 31 moles × 10^-6 g^-1. For the same compound, the “End Groups --OH” value [2, 8] was 60 moles × 10^-6 g^-1 and the “End Groups Total from solution I.V.” value [2, 8] was 121 moles × 10^-6 g^-1.

With `O=C([O-])c1ccc(O)cc1.[Na+]` [sodium p-hydroxybenzoate] the “Tn(composition)-Tn(polyester)” value [1] was 20 °C, the “% of carboxylate end group” value [2, 9] was 2.7% and the “End Groups --COOH” value [2, 9] was 102 moles × 10^-6 g^-1. The “End Groups --OH” value [2, 9] was 64 moles × 10^-6 g^-1, the “End Groups Carboxylate” value [2, 9] was 4 moles × 10^-6 g^-1 and the “End Groups Total from solution I.V.” value [2, 9] was 148 moles × 10^-6 g^-1.

In the case of `COC(=O)c1ccc(C(=O)[O-])cc1.[Na+]` [Sodium monomethyl terephthalate, reference compound], the Tn ([1]; time in press 60 sec at 280 °C) was 132 °C and the nucleating activity [1] was “only slight nucleating activity”.

For `O=C(O)c1ccccc1C(=O)O` [Potassium hydrogen orthophthalate, reference compound], the Tn ([1]; time in press 30 sec at 280 °C) was 142.5 °C and the Tn ([1]; time in press 60 sec at 280 °C) was 144.5 °C.
